How the values were obtained:
HCT-116 = test: NCI human tumor cell panel: HCT-116 (Colon Cancer); format: cell-based
MOLT-4 = test: NCI human tumor cell panel: MOLT-4 (Leukemia); format: cell-based
U251 = test: NCI human tumor cell panel: U251 (CNS Cancer); format: cell-based
SK-MEL-5 = test: NCI human tumor cell panel: SK-MEL-5 (Melanoma); format: cell-based; conditions: SK-MEL-5, read-out: Log10 TGI (converted)
LOX IMVI = test: NCI human tumor cell panel: LOX IMVI (Melanoma); format: cell-based
MDA-N = test: NCI human tumor cell panel: MDA-N (Breast Cancer); format: cell-based
TK-10 = test: NCI human tumor cell panel: TK-10 (Renal Cancer); format: cell-based
A549/ATCC = test: NCI human tumor cell panel: A549/ATCC (Non-Small Cell Lung Cancer); format: cell-based
UO-31 = test: NCI human tumor cell panel: UO-31 (Renal Cancer); format: cell-based
RPMI-8226 = test: NCI human tumor cell panel: RPMI-8226 (Leukemia); format: cell-based
MCF7/ADR-RES = test: NCI human tumor cell panel: MCF7/ADR-RES (Breast Cancer); format: cell-based
NCI-H23 = test: NCI human tumor cell panel: NCI-H23 (Non-Small Cell Lung Cancer); format: cell-based
MDA-MB-435 = test: NCI human tumor cell panel: MDA-MB-435 (Breast Cancer); format: cell-based
SW-620 = test: NCI human tumor cell panel: SW-620 (Colon Cancer); format: cell-based
NCI-H522 = test: NCI human tumor cell panel: NCI-H522 (Non-Small Cell Lung Cancer)
EKVX = test: NCI human tumor cell panel: EKVX (Non-Small Cell Lung Cancer); format: cell-based
A498 = test: NCI human tumor cell panel: A498 (Renal Cancer); format: cell-based
OVCAR-3 = test: NCI human tumor cell panel: OVCAR-3 (Ovarian Cancer); format: cell-based
NCI-H460 = test: NCI human tumor cell panel: NCI-H460 (Non-Small Cell Lung Cancer); format: cell-based
BT-549 = test: NCI human tumor cell panel: BT-549 (Breast Cancer); format: cell-based
SK-MEL-28 = test: NCI human tumor cell panel: SK-MEL-28 (Melanoma); format: cell-based
SF-539 = test: NCI human tumor cell panel: SF-539 (CNS Cancer); format: cell-based
SF-295 = test: NCI human tumor cell panel: SF-295 (CNS Cancer); format: cell-based
786-0 = test: NCI human tumor cell panel: 786-0 (Renal Cancer); format: cell-based
HT29 = test: NCI human tumor cell panel: HT29 (Colon Cancer); format: cell-based; conditions: HT-29, HT29, read-out: Log10 TGI (converted)
NCI-H322M = test: cells; format: cell-based; conditions: Homo sapiens
SK-MEL-2 = test: NCI human tumor cell panel: SK-MEL-2 (Melanoma); format: cell-based
ACHN = test: NCI human tumor cell panel: ACHN (Renal Cancer); format: cell-based
OVCAR-8 = test: NCI human tumor cell panel: OVCAR-8 (Ovarian Cancer); format: cell-based
M14 = test: NCI human tumor cell panel: M14 (Melanoma); format: cell-based
[1] = read-out: Log10 GI50 (converted)
[2] = read-out: Log10 TGI (converted)

For `OCc1ccc(-c2ccc(-c3ccc(CO)s3)[se]2)s1` [compound 675343], the GI50 (HCT-116; HCT-116, read-out: Log10 GI50 (converted)) was under 0.01 µM, the IC (TGI) (HCT-116; HCT-116, read-out: Log10 TGI (converted)) was over 100 µM and the GI50 (MOLT-4; MOLT-4, read-out: Log10 GI50 (converted)) was 28.8 µM. It also gave an IC (TGI) (MOLT-4; MOLT-4, read-out: Log10 TGI (converted)) of 87.1 µM, a GI50 (U251; U-251, U251, read-out: Log10 GI50 (converted)) of under 0.01 µM and an IC (TGI) (U251; U-251, U251, read-out: Log10 TGI (converted)) of over 100 µM. For the same compound, the IC (TGI) (SK-MEL-5) was over 100 µM, the GI50 (LOX IMVI; [1]) was over 100 µM and the IC (TGI) (LOX IMVI; [2]) was over 100 µM. For the same compound, the GI50 (MDA-N; [1]) was over 100 µM, the IC (TGI) (MDA-N; [2]) was over 100 µM and the GI50 (TK-10; TK-10, read-out: Log10 GI50 (converted)) was under 0.01 µM. The IC (TGI) (TK-10; TK-10, read-out: Log10 TGI (converted)) was under 0.01 µM, the GI50 (A549/ATCC; [1]) was over 100 µM and the IC (TGI) (A549/ATCC; [2]) was over 100 µM. It also gave a GI50 (UO-31; UO-31, read-out: Log10 GI50 (converted)) of over 100 µM, an IC (TGI) (UO-31; UO-31, read-out: Log10 TGI (converted)) of over 100 µM and a GI50 (RPMI-8226; RPMI-8226, read-out: Log10 GI50 (converted)) of over 100 µM. It also gave an IC (TGI) (RPMI-8226; RPMI-8226, read-out: Log10 TGI) of over 100 µM, a GI50 (MCF7/ADR-RES; [1]) of over 100 µM and an IC (TGI) (MCF7/ADR-RES; [2]) of over 100 µM. The GI50 (NCI-H23; NCI-H23, read-out: Log10 GI50 (converted)) was over 100 µM, the IC (TGI) (NCI-H23; NCI-H23, read-out: Log10 TGI (converted)) was over 100 µM and the GI50 (MDA-MB-435; MDA-MB-435, read-out: Log10 GI50 (converted)) was over 100 µM. The IC (TGI) (MDA-MB-435; MDA-MB-435, read-out: Log10 TGI (converted)) was over 100 µM, the GI50 (SW-620; SW-620, read-out: Log10 GI50 (converted)) was under 0.01 µM and the IC (TGI) (SW-620; SW-620, read-out: Log10 TGI (converted)) was over 100 µM. For the same compound, the GI50 (NCI-H522; NCI-H522, read-out: Log10 GI50 (converted)) was at least 100 µM, the IC (TGI) (NCI-H522; NCI-H522, read-out: Log10 TGI) was over 100 µM and the GI50 (EKVX; [1]) was over 100 µM. It also gave an IC (TGI) (EKVX; [2]) of over 100 µM, a GI50 (A498; A498, read-out: Log10 GI50 (converted)) of under 0.01 µM and an IC (TGI) (A498; A498, read-out: Log10 TGI (converted)) of under 0.01 µM. For the same compound, the GI50 (OVCAR-3; OVCAR-3, read-out: Log10 GI50 (converted)) was 0.0257 µM, the IC (TGI) (OVCAR-3; OVCAR-3, read-out: Log10 TGI (converted)) was 32.4 µM and the GI50 (NCI-H460; NCI-H460, read-out: Log10 GI50 (converted)) was under 0.01 µM. It also gave an IC (TGI) (NCI-H460; NCI-H460, read-out: Log10 TGI (converted)) of over 100 µM, a GI50 (BT-549; BT-549, read-out: Log10 GI50 (converted)) of over 100 µM and an IC (TGI) (BT-549; BT-549, read-out: Log10 TGI (converted)) of over 100 µM. It also gave a GI50 (SK-MEL-28; SK-MEL-28, read-out: Log10 GI50 (converted)) of over 100 µM, an IC (TGI) (SK-MEL-28; SK-MEL-28, read-out: Log10 TGI (converted)) of over 100 µM and a GI50 (SF-539; SF-539, read-out: Log10 GI50 (converted)) of over 100 µM. For the same compound, the IC (TGI) (SF-539; SF-539, read-out: Log10 TGI (converted)) was over 100 µM, the GI50 (SF-295; SF-295, read-out: Log10 GI50 (converted)) was over 100 µM and the IC (TGI) (SF-295; SF-295, read-out: Log10 TGI (converted)) was over 100 µM. For the same compound, the GI50 (786-0; 786-0, read-out: Log10 GI50 (converted)) was over 100 µM, the IC (TGI) (786-0; 786-0, read-out: Log10 TGI (converted)) was over 100 µM and the IC (TGI) (HT29) was over 100 µM. It also gave a GI50 (NCI-H322M; [1]) of 9.77 µM, an IC (TGI) (NCI-H322M; [2]) of over 100 µM and a GI50 (SK-MEL-2; SK-MEL-2, read-out: Log10 GI50 (converted)) of over 100 µM. The IC (TGI) (SK-MEL-2; SK-MEL-2, read-out: Log10 TGI (converted)) was over 100 µM, the GI50 (ACHN; [1]) was over 100 µM and the IC (TGI) (ACHN; [2]) was over 100 µM. The GI50 (OVCAR-8; OVCAR-8, read-out: Log10 GI50 (converted)) was under 0.01 µM, the IC (TGI) (OVCAR-8; OVCAR-8, read-out: Log10 TGI (converted)) was over 100 µM and the GI50 (M14; M14, read-out: Log10 GI50 (converted)) was over 100 µM. The IC (TGI) (M14; M14, read-out: Log10 TGI (converted)) was over 100 µM.

Source: US20040063662A1, “Selenophene anti-tumor agents” (priority 1996, published 2004)
